Drawing on patent US20130137865A1 (TAISHO PHARMACEUTICAL CO., LTD., priority 2010, published 2013), this text covers IC50 for 24 compounds.

T1 sequence (Q14416 19-872): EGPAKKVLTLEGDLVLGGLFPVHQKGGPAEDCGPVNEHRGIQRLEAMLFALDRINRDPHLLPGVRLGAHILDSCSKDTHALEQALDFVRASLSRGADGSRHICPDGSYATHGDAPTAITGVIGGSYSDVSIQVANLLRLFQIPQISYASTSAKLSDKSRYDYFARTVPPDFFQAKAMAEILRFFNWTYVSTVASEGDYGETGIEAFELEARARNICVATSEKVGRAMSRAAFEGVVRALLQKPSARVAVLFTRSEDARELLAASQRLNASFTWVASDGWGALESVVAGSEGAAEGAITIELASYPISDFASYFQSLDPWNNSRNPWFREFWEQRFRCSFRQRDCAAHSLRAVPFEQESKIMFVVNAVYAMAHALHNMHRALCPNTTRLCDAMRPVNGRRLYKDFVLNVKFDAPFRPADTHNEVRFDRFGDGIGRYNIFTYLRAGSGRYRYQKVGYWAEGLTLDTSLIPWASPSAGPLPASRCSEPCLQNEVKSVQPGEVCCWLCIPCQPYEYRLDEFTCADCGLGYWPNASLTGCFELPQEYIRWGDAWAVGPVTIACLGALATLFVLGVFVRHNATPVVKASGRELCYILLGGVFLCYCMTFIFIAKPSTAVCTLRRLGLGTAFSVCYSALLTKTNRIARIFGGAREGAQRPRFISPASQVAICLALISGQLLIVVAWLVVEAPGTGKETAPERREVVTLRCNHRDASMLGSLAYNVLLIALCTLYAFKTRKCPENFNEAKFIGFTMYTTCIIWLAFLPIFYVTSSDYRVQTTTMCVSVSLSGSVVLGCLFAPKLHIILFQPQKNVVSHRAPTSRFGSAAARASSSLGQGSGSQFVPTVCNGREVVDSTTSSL

One assay concerns the target T1, human mGlu2 receptor (Homo sapiens, UniProt Q14416).
T1 construct: expressed in transfected cells; host or cells: CHO cells
Briefly: [35S]GTPγS binding test (2), membranes of CHO cells stably expressing human mGlu2. It is filed as biochemical. Conditions: inhibition of glutamic acid (20 μM)-stimulated specific [35S]GTPγS binding. As to the method:
(Preparation of Crude Membrane Fraction of CHO Cells Stably Expressing the Human Metabotropic Glutamate Receptor (mGlu2))
(§1) CHO cells stably expressing the human mGlu2 receptor were cultured in a 10% dialyzed fetal bovine serum-containing Dulbecco's Modified Eagle's Medium [1% proline, 50 units/mL penicillin, 50 μg/mL streptomycin, 400 μg/mL hygromycin B, and 2 mM L-glutamine (to be added when used)] at 37° C. in 5% CO2. Confluent cells were washed with PBS(−) twice, and were then harvested with a cell scraper. Then, the cells were centrifuged at 4° C. at 1000 rpm for 5 minutes to collect. The obtained precipitate was suspended in a 20 mM HEPES buffer (pH 7.4), and then homogenized with a Teflon® homogenizer. The resultant was centrifuged at 4° C. at 48,000×g for 20 minutes to obtain a precipitate again. The obtained precipitate was washed twice by centrifugation, and was then homogenized with the above-mentioned buffer, so as to obtain a crude membrane fraction. The obtained crude membrane fraction was preserved at −80° C.
(§2) The frozen membrane fraction as prepared above was thawed when used, and it was then diluted with a binding test buffer (final concentration: 20 mM HEPES, 100 mM NaCl, 10 mM MgCl2, 8.4 μM GDP, 10 μg/mL saponin, and 0.1% BSA). The compound of the Example was added to a membrane fraction (10 μg protein/assay), and the obtained mixture was then incubated at 30° C. for 20 minutes. Thereafter, glutamic acid (final concentration: 20 μM) and [^35S]GTPγS (final concentration: 0.15 nM) were added to the reaction mixture, and then incubated at 30° C. for 1 hour. After completion of the incubation, the reaction mixture was subjected to filtration over a Whatman GF/C filter that had previously been immersed in a 20 mM HEPES buffer (pH 7.4), and the filter was then washed three times with 300 μL of ice-cold 20 mM HEPES buffer (pH 7.4). A scintillation cocktail was added to the resulting filter, and membrane-bound radioactivity was then measured with a liquid scintillation counter.
(§3) The amount of [^35S]GTPγS bound in the case of carrying out the above described reaction in the absence of glutamic acid was defined as non-specific binding. The difference between such non-specific bound and the amount of [^35S]GTPγS bound in the presence of glutamic acid was defined as specific binding. Using non-linear analysis, a concentration-inhibition curve was produced. The concentration of the compound of each Example that caused 50% inhibition (IC50 value) of specific binding was determined from each concentration-inhibition curve.
On the technique in general: Binding of GTPγS marks nucleotide exchange on a G protein.
Consider `Cn1ncc(-c2nc(-c3cncc(S(N)(=O)=O)c3)no2)c1COc1ccc(C(F)(F)F)cn1` [Example 224, 5-{5-[1-Methyl-5-({[5-(trifluoromethyl)pyridin-2-yl]oxy}methyl)-1H-pyrazol-4-yl]-1,2,4-oxadiazol-3-yl}pyridine-3-sulfonamide], for which the 50% inhibitory concentration (IC50) came out at 0.00364 µM.

With `Cn1ncc(-c2nc(-c3cccc(S(N)(=O)=O)c3)no2)c1COc1ccc(C(F)(F)F)cn1` [Example 122, 3-{5-[1-Methyl-5-({[5-(trifluoromethyl)pyridin-2-yl]oxy}methyl)-1H-pyrazol-4-yl]-1,2,4-oxadiazol-3-yl}benzenesulfonamide], the IC50 was 0.00133 µM.

Consider `Cn1ncc(-c2nc(-c3cccc(S(N)(=O)=O)c3)no2)c1COc1ncc(F)cc1Br` [Example 214, 3-[5-(5-{[(3-Bromo-5-fluoropyridin-2-yl)oxy]methyl}-1-methyl-1H-pyrazol-4-yl)-1,2,4-oxadiazol-3-yl]benzenesulfonamide], for which the 50% inhibitory concentration (IC50) stood at 0.0264 µM.

`Cn1ncc(-c2nc(-c3cccc(S(C)(=O)=O)c3)no2)c1COc1ccc(C(F)(F)F)cn1` [Example 216, 2-[(1-Methyl-4-{3-[3-(methylsulfonyl)phenyl]-1,2,4-oxadiazol-5-yl}-1H-pyrazol-5-yl)methoxy]-5-(trifluoromethyl)pyridine] gave a concentration for half-maximal inhibition (IC50) of 0.00432 µM.

`Cn1ncc(-c2coc(-c3cccc(S(N)(=O)=O)c3)n2)c1COc1ccc(C(F)(F)F)cc1` [Example 203, 3-[4-(1-Methyl-5-{[4-(trifluoromethyl)phenoxy]methyl}-1H-pyrazol-4-yl)-1,3-oxazol-2-yl]benzenesulfonamide] registered an IC50 of 0.00385 µM.

Consider `Cn1ncc(-c2nc(-c3ccc(S(C)(=O)=O)cc3)no2)c1COc1ccc(C(F)(F)F)cn1` [Example 215, 2-[(1-Methyl-4-{3-[4-(methylsulfonyl)phenyl]-1,2,4-oxadiazol-5-yl}-1H-pyrazol-5-yl)methoxy]-5-(trifluoromethyl)pyridine], for which the half-maximal inhibitory concentration (IC50) was determined as 0.0491 µM.

On to `Cn1ncc(-c2cc(-c3cccc(S(N)(=O)=O)c3)on2)c1COc1ccc(F)cn1` [Example 204, 3-[3-(5-{[(5-Fluoropyridin-2-yl)oxy]methyl}-1-methyl-1H-pyrazol-4-yl)-1,2-oxazol-5-yl]benzenesulfonamide], for which the IC50 amounted to 0.0508 µM.

`Cn1ncc(-c2nc(-c3cccc(S(N)(=O)=O)c3)no2)c1COc1ccc(F)cn1` [Example 72, 3-[5-(5-{[(5-Fluoropyridin-2-yl)oxy]methyl}-1-methyl-1H-pyrazol-4-yl)-1,2,4-oxadiazol-3-yl]benzenesulfonamide] came in with a concentration for half-maximal inhibition (IC50) of 0.0103 µM.

`Cn1ncc(-c2nc(-c3cccc(N)c3)no2)c1COc1ccc(C(F)(F)F)cn1` [Example 220, 3-{5-[1-Methyl-5-({[5-(trifluoromethyl)pyridin-2-yl]oxy}methyl)-1H-pyrazol-4-yl]-1,2,4-oxadiazol-3-yl}aniline] yielded a concentration for half-maximal inhibition (IC50) of 0.0322 µM.

Turning to `Cn1ncc(-c2nc(-c3cncc(S(C)(=O)=O)c3)no2)c1COc1ccc(C(F)(F)F)cn1` [Example 223, 2-[(1-Methyl-4-{3-[5-(methylsulfonyl)pyridin-3-yl]-1,2,4-oxadiazol-5-yl}-1H-pyrazol-5-yl)methoxy]-5-(trifluoromethyl)pyridine], the IC50 came to 0.0171 µM.

`CN(C)CCNS(=O)(=O)c1cccc(-c2noc(-c3cnn(C)c3COc3ccc(F)cn3)n2)c1` [Example 85, N-[2-(Dimethylamino)ethyl]-3-[5-(5-{[(5-fluoropyridin-2-yl)oxy]methyl}-1-methyl-1H-pyrazol-4-yl)-1,2,4-oxadiazol-3-yl]benzenesulfonamide] yielded a 50% inhibitory concentration (IC50) of 0.0136 µM.

For the compound `Cn1ncc(-c2nnc(-c3ccc(S(N)(=O)=O)cc3)o2)c1COc1ccc(C(F)(F)F)cc1` [Example 190, 4-[5-(1-Methyl-5-{[4-(trifluoromethyl)phenoxy]methyl}-1H-pyrazol-4-yl)-1,3,4-oxadiazol-2-yl]benzenesulfonamide], the IC50 amounted to 0.0672 µM.

As to `Cn1ncc(-c2nnc(-c3cccc(S(N)(=O)=O)c3)o2)c1COc1ccc(C(F)(F)F)cn1` [Example 187, 3-{5-[1-Methyl-5-({[5-(trifluoromethyl)pyridin-2-yl]oxy}methyl)-1H-pyrazol-4-yl]-1,3,4-oxadiazol-2-yl}benzenesulfonamide], the IC50 turned out to be 0.0215 µM.

For the compound `Cn1ncc(-c2nc(-c3ccc(N)nc3)no2)c1COc1ccc(C(F)(F)F)cc1` [Example 92, 5-[5-(1-Methyl-5-{[4-(trifluoromethyl)phenoxy]methyl}-1H-pyrazol-4-yl)-1,2,4-oxadiazol-3-yl]pyridine-2-amine], the IC50 was 0.0286 µM.

The compound `CC(=O)Nc1cc(-c2noc(-c3cnn(C)c3COc3ccc(C(F)(F)F)cc3)n2)ccn1` [Example 208, N-{4-[5-(1-methyl-5-{[4-(trifluoromethyl)phenoxy]methyl}-1H-pyrazol-4-yl)-1,2,4-oxadiazol-3-yl]pyridin-2-yl}acetamide] registered an IC50 of 0.0291 µM.

`CNCCNS(=O)(=O)c1cccc(-c2noc(-c3cnn(C)c3COc3ccc(F)cn3)n2)c1` [Example 232, 3-[5-(5-{[(5-Fluoropyridin-2-yl)oxy]methyl}-1-methyl-1H-pyrazol-4-yl)-1,2,4-oxadiazol-3-yl]-N-[2-(methylamino)ethyl]benzenesulfonamide] had an IC50 of 0.0332 µM.

`Cn1ncc(-c2nc(-c3cnc(N)nc3)no2)c1COc1ccc(C(F)(F)F)cn1` [Example 218, 5-{5-[1-Methyl-5-({[5-(trifluoromethyl)pyridin-2-yl]oxy}methyl)-1H-pyrazol-4-yl]-1,2,4-oxadiazol-3-yl}pyrimidine-2-amine]: the IC50 is 0.068 µM.

`CNS(=O)(=O)c1cccc(-c2noc(-c3cnn(C)c3COc3ccccn3)n2)c1` [Example 146, N-Methyl-3-(5-{1-methyl-5-[(pyridin-2-yloxy)methyl]-1H-pyrazol-4-yl}-1,2,4-oxadiazol-3-yl)benzenesulfonamide] had an IC50 of 0.0132 µM.

On to `CC(=O)Nc1cc(-c2noc(-c3cnn(C)c3COc3ccc(C(F)(F)F)cn3)n2)ccn1` [Example 217, N-(4-{5-[1-Methyl-5-({[5-(trifluoromethyl)pyridin-2-yl]oxy}methyl)-1H-pyrazol-4-yl]-1,2,4-oxadiazol-3-yl}pyridin-2-yl)acetamide], for which the IC50 is 0.0149 µM.

Turning to `Cn1ncc(-c2nc(-c3cccc(S(N)(=O)=O)c3)no2)c1COc1ccccn1` [Example 75, 3-(5-{1-Methyl-5-[(pyridin-2-yloxy)methyl]-1H-pyrazol-4-yl}-1,2,4-oxadiazole-3-yl)benzenesulfonamide], the IC50 was found to be 0.0367 µM.

`Cn1nc(-c2cccc(S(N)(=O)=O)c2)nc1-c1cnn(C)c1COc1ccc(C(F)(F)F)cc1` [Example 233, 3-[1-Methyl-5-(1-methyl-5-{[4-(trifluoromethyl)phenoxy]methyl}-1H-pyrazol-4-yl)-1H-1,2,4-triazol-3-yl]benzenesulfonamide] had a half-maximal inhibitory concentration (IC50) of 0.0806 µM.

Compound `Cn1ncc(-c2nc(-c3cc[nH]c(=O)c3)no2)c1COc1ccc(C(F)(F)F)cn1` [Example 228, 4-{5-[1-Methyl-5-({[5-(trifluoromethyl)pyridin-2-yl]oxy}methyl)-1H-pyrazol-4-yl]-1,2,4-oxadiazol-3-yl}pyridine-2(1H)-one] showed an IC50 of 0.0569 µM.

A further assay deals with T2, rat mGlu2 receptor (Rattus norvegicus, UniProt P31421).
T2 construct: expressed in transfected cells; host or cells: CHO cells
T2 sequence (P31421 19-872): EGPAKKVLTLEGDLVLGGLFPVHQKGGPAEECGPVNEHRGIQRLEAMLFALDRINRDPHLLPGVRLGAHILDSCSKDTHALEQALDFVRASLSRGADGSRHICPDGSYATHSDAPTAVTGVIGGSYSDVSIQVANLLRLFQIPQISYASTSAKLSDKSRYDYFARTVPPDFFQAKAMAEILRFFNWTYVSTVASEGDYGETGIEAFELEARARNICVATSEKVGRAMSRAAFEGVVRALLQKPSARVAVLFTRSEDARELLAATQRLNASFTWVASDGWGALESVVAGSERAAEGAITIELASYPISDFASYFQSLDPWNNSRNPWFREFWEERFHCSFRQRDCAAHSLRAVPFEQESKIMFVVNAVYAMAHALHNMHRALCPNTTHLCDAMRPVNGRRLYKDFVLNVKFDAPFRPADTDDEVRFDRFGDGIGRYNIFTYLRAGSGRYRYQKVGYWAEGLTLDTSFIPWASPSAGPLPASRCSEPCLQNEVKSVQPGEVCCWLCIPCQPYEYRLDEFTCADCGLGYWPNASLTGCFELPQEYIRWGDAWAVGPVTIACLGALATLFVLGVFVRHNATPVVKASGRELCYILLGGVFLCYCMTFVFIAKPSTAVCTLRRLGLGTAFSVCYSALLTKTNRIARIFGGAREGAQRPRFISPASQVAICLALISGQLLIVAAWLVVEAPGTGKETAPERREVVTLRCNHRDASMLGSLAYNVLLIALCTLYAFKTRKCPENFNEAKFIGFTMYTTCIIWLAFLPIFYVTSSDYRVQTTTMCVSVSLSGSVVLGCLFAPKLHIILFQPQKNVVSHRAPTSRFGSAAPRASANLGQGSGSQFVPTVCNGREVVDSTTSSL
Briefly: [35S]GTPγS binding test (1), membranes of CHO cells stably expressing rat mGlu2. It is filed as biochemical. Conditions: inhibition of glutamic acid (20 μM)-stimulated specific [35S]GTPγS binding. The method, then:
(Preparation of Crude Membrane Fraction of CHO Cells Stably Expressing the Rat Metabotropic Glutamate Receptor (mGlu2))
as §1, with “rat” for “human”, “streptomycin,” for “streptomycin, 400 μg/mL hygromycin B,”
as §2, §3
For `CCn1ncc(-c2nc(-c3cccc(S(N)(=O)=O)c3)no2)c1CCc1ccc(C(F)(F)F)cc1` [Example 39, 3-[5-(1-Ethyl-5-{2-[4-(trifluoromethyl)phenyl]ethyl}-1H-pyrazol-4-yl)-1,2,4-oxadiazol-3-yl]benzenesulfonamide], the half-inhibitory concentration (IC50) was 0.012 µM.

For `Cn1ncc(-c2nc(-c3cccc(S(N)(=O)=O)c3)no2)c1CNc1ccc(C(F)(F)F)cc1` [Example 9], the concentration for half-maximal inhibition (IC50) worked out at 0.0285 µM.

What is called IC50 is the point on the concentration scale where inhibition reaches its midpoint. Read a low IC50 as inhibition by little substance.
